Values of other authors as cited in patent US11399559B2, “Nutritional products having improved lipophilic solubility and bioavailability in an easily mixable form” (ABBOTT LABORATORIES, priority 2015, dated 2022).
Like-named read-outs stand apart in the source and are kept apart here.

## Cc1c(C)c2c(c(C)c1O)CC[C@@](C)(CCC[C@H](C)CCC[C@H](C)CCCC(C)C)O2 [RRR-alpha-tocopherol]
Accepted nutritional guidelines
  Biological activity relative to all-rac-alpha-tocopherol: 1.36 times
Recent studies
  Biological activity relative to all-rac-alpha-tocopherol: about 2 times
